We go through 14 compounds from PubChem BioAssay (NCI).

Assay in all cases: NCI anticancer screen, dose series, 48 h
The subject of experiment [1] is 786-0 renal.
Experiment [2] relates to HL-60(TB) leukemia.
Experiment [3] has as its system U251 CNS.
Experiment [4] has as its system OVCAR-3 ovarian.
Experiment [5] deals with COLO 205 colon.
Experiment [6] deals with K-562 leukemia.
Experiment [7] has as its system MCF7 breast.
Experiment [8] relates to NCI-H23 lung.
Experiment [9] has as its system SF-539 CNS.
For experiment [10], the system named is NCI-H226 lung.

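Method: 48-hour compound exposure of cells in 96-well plates, five concentrations, linear interpolation of endpoints. TGI: total growth inhibition.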 Where a SMILES comes first, the peptide text is derived from it. [ ]: non-standard residue; d: D form. The star is where a group is joined. hSer = N[CH](CCO)C(=O)O; Boc = CC(C)(C)OC(=O)*

Consider `CN(NC(=O)c1ccco1)C1=NCCCCN1`, for which the TGI in experiment [1], in [2], in experiment [3], in experiment [4], in experiment [5] and in [6] was > 100 µM in each case. The TGI in experiment [7], in experiment [8], in experiment [9] and in experiment [10] was > 100 µM in each case.

For `CC(C)CN1CN(c2ccccc2)C2(CCN(CC(C)(c3ccc(F)cc3)C3OCCO3)CC2)C1=O` (stereo not drawn), the TGI in experiment [1] was 12.1 µM; in [2] it was 12.8 µM; in [3], 17.2 µM; in experiment [4] it was 22.4 µM; in experiment [5], 3.71 µM; in experiment [6], 18 µM. Moreover, the TGI in experiment [7] was determined as 13.8 µM; in experiment [8] it was 8.69 µM; in [9], 18.2 µM; in [10], 29.1 µM.

For the compound `O=C(CCSC(CC(=O)c1ccc(Cl)cc1)c1ccc(Cl)cc1)Nc1ccc(Cl)cc1` (stereo not drawn), the TGI in [1] was 27.6 µM; in experiment [2] it was 20.4 µM; in experiment [3] it was 21.1 µM; in experiment [4], 27.1 µM; in [5], 35.2 µM; in experiment [6], 18.6 µM. Further, the TGI amounted to 15.3 µM in [7], 30.4 µM in experiment [8], 32.6 µM in experiment [9] and 41.5 µM in experiment [10].

As to `COc1c2nc(CCl)n(C)c(=O)c2c(OC)c2c(=O)n(C)c(CCl)nc12`, the TGI in [1] is 3.29 µM; in experiment [2], 2.47 µM; in [3], 3.29 µM; in experiment [4], 5.68 µM; in [5], 2.71 µM; in experiment [6], 7.83 µM. Besides, the TGI in experiment [7] is 2.36 µM; in experiment [8], 3.4 µM; in experiment [9] it was 13.1 µM; in [10], 13.7 µM.

In the case of `COc1c(C2(c3ccc(F)cc3)SCCCS2)c(=O)c1=O`, the TGI in experiment [1], in experiment [2], in experiment [3], in [4], in experiment [5] and in experiment [6] was > 100 µM throughout. Also, the TGI in experiment [7], in [8], in experiment [9] and in [10] was > 100 µM each time.

In the case of `Nc1cc2c(cc1[N+](=O)[O-])[nH]c1c(-c3ccccc3)nccc12`, the TGI is 42.1 µM in experiment [2]; 55.4 µM in [3]; 48.5 µM in experiment [4]; 44.3 µM in experiment [5]; > 100 µM in [6]; > 64.1 µM in experiment [7]. The TGI in experiment [8] is 39.5 µM; in experiment [9], > 75.4 µM; in [10], 56.5 µM.

For `Cc1cc(Br)c(N2C3=C(CC4=C2CCCC4=O)C(=O)CCC3)c(Br)c1`, the TGI in [1], in experiment [2], in experiment [3], in experiment [4], in experiment [6] and in experiment [7] was > 100 µM in each case. Also, the TGI in experiment [8], in experiment [9] and in experiment [10] was > 100 µM in each case.

For `COc1ccc(-n2sc3ncc(-c4ccccc4)cc3c2=O)cc1`, the TGI is 39.3 µM in experiment [1]; > 100 µM in [2]; > 100 µM in experiment [3]; 47.2 µM in [4]; > 100 µM in experiment [5]; > 100 µM in [7]. Moreover, the figures for the TGI in [8] and in [10] were 53.3 µM and > 100 µM, respectively.

`Cc1ccc(OP2(=O)Oc3ccc4ccccc4c3CN2c2ccc(Cl)cc2)cc1C` (stereo not drawn): the TGI in experiment [2], in [3], in experiment [4], in [5], in experiment [6] and in [7] was > 100 µM each time. The TGI in experiment [8], in experiment [9] and in experiment [10] was > 100 µM each time.

Regarding `COc1ccc(-n2c(CCCC(=O)O)nc3c2C(=O)c2ccccc2C3=O)cc1`, the TGI in experiment [1] is > 100 µM; in experiment [2] it was > 100 µM; in experiment [3], > 100 µM; in experiment [4] it was 92.9 µM; in experiment [5] it was > 100 µM; in experiment [6], > 100 µM. The TGI in experiment [7], in experiment [8] and in experiment [9] was > 100 µM in each case.

On to `COC(=O)c1ccc(CN2CCc3c([nH]c4ccccc34)C2CO)o1` (stereo not drawn), for which the TGI in [1], in experiment [2], in experiment [4], in [5], in experiment [6] and in [7] was > 10 µM in each case. Besides, the TGI in experiment [8] was > 10 µM.

For the compound `COCCC(NC(=O)C(CC(C)C)NC(=O)OC(C)(C)C)C(N)=O` (stereo not drawn) (Boc-Leu-[hSer](Me)-NH2; configuration not given here), the TGI in [1], in experiment [2], in experiment [3], in [4], in experiment [5] and in [6] was > 100 µM each time. For the same compound, the TGI in experiment [7], in experiment [9] and in experiment [10] was > 100 µM each time.

Regarding `Oc1ccc(-c2cc(-c3c(O)cc(O)cc3O)on2)cc1`, the TGI in [1], in [2], in experiment [3], in experiment [4], in experiment [6] and in experiment [7] was > 100 µM in each case. For the same compound, the TGI in [8], in experiment [9] and in experiment [10] was > 100 µM each time.

Regarding `CCOC(=O)CC(C)C(C#N)(OP1(=O)OC(c2ccccc2)C(C)N1C)c1ccccc1` (stereo not drawn), the TGI was > 100 µM in experiment [1]; 78.7 µM in [2]; > 100 µM in experiment [3]; > 100 µM in experiment [4]; 36.6 µM in [5]; > 100 µM in experiment [6]. Further, the TGI in experiment [7], in [8] and in [9] was > 100 µM in each case.
